The results in this text go back to ChEMBL document CHEMBL5620370, “1,3-Thiazole derivatives as privileged structures for anti-Trypanosoma cruzi activity: Rational design, synthesis, in silico and in vitro studies” (Eur J Med Chem, 2023).

For data set [1], the system named is Trypanosoma cruzi. Kind of data set: Antitrypanosomal activity against Trypanosoma cruzi Dm28 epimastigotes assessed as inhibition of parasite growth incubated for 96 hrs by Neubauer chamber based analysis. Type of data set: functional, organism-based. Particulars: Dm28, 96 h.
A short description of data set [2]: Selectivity index, ratio of CC50 for cytotoxicity against mouse RAW264.7 cells to IC50 for antitrypanosomal activity against Trypanosoma cruzi Dm28 epimastigotes assessed as inhibition of parasite growth. Type of data set: toxicity, cell-based. The conditions noted are these: read-out: Ratio CC50/IC50.
The test system of data set [3] is Trypanosoma cruzi. The data set is described as follows: Antitrypanosomal activity against Trypanosoma cruzi Tulahuen amastigotes transfected in L929 cells assessed as inhibition of parasite growth incubated for 96 hrs by CPRG based spectrophotometric analysis. The class given is functional, organism-based. The conditions noted are these: L929, 96 h.
The nature of data set [4]: Cytotoxicity against mouse RAW264.7 cells assessed as inhibition of cell growth incubated for 72 hrs by MTT assay. The class given is toxicity, cell-based.
Data set [5] relates to Trypanosoma cruzi. The data set is described as follows: Antitrypanosomal activity against Trypanosoma cruzi Y strain trypomastigotes transfected in African green monkey Vero cells assessed as inhibition of parasite growth incubated for 24 hrs by Neubauer chamber based analysis. The class given is functional, organism-based.
Data set [6] is described as follows: Selectivity index, ratio of CC50 for cytotoxicity against mouse RAW264.7 cells to IC50 for antitrypanosomal activity against Trypanosoma cruzi Y strain trypomastigotes transfected in African green monkey Vero cells assessed as inhibition of parasite growth. The class given is toxicity, cell-based. The conditions noted are these: read-out: Ratio CC50/IC50.
Data set [7] is described as follows: Selectivity index, ratio of CC50 for cytotoxicity against mouse RAW264.7 cells to IC50 for antitrypanosomal activity against Trypanosoma cruzi Tulahuen amastigotes transfected in L929 cells assessed as inhibition of parasite growth. The class given is toxicity, cell-based. Particulars: read-out: Ratio CC50/IC50.
Data set [8] relates to Trypanosoma cruzi. Kind of data set: Induction of apoptosis in Trypanosoma cruzi Y strain trypomastigotes assessed as early apoptosis at 1 times IC50 incubated for 24 hrs by Annexin V-FITC/7AAD staining based flow cytometry. Type of data set: functional, organism-based.
Data set [9] relates to Trypanosoma cruzi. Kind of data set: Induction of apoptosis in Trypanosoma cruzi Y strain trypomastigotes assessed as early apoptosis at 2 times IC50 incubated for 24 hrs by Annexin V-FITC/7AAD staining based flow cytometry. Type of data set: functional, organism-based.
Data set [10] has as its system Trypanosoma cruzi. Kind of data set: Induction of apoptosis in Trypanosoma cruzi Y strain trypomastigotes assessed as late apoptosis at 1 times IC50 incubated for 24 hrs by Annexin V-FITC/7AAD staining based flow cytometry. The class given is functional, organism-based.
The test system of data set [11] is Trypanosoma cruzi. The data set is described as follows: Induction of apoptosis in Trypanosoma cruzi Y strain trypomastigotes assessed as necrosis at 1 times IC50 incubated for 24 hrs by Annexin V-FITC/7AAD staining based flow cytometry. The class given is functional, organism-based.
For data set [12], the system named is Trypanosoma cruzi. Kind of data set: Induction of mitochondrial membrane potential loss in Trypanosoma cruzi Y strain trypomastigotes at 1 times IC50 incubated for 24 hrs by Rhodamine 123 staining based flow cytometry. Type of data set: organism-based.
In data set [13] the test system is Trypanosoma cruzi. Kind of data set: Induction of mitochondrial membrane potential loss in Trypanosoma cruzi Y strain trypomastigotes at 2 times IC50 incubated for 24 hrs by Rhodamine 123 staining based flow cytometry. Type of data set: organism-based.
The subject of data set [14] is Trypanosoma cruzi. Kind of data set: Induction of DNA damage in Trypanosoma cruzi Y strain trypomastigotes at 2 times IC50 incubated for 24 hrs by acridine orange staining based flow cytometry. Type of data set: functional, organism-based.
The test system of data set [15] is Trypanosoma cruzi. Kind of data set: Induction of DNA damage in Trypanosoma cruzi Y strain trypomastigotes at 1 times IC50 incubated for 24 hrs by acridine orange staining based flow cytometry. Type of data set: functional, organism-based.
The test system of data set [16] is Trypanosoma cruzi. The data set is described as follows: Induction of apoptosis in Trypanosoma cruzi Y strain trypomastigotes assessed as late apoptosis at 50.9 uM incubated for 24 hrs by Annexin V-FITC/7AAD staining based flow cytometry. The class given is functional, organism-based.
The test system of data set [17] is Trypanosoma cruzi. Kind of data set: Induction of apoptosis in Trypanosoma cruzi Y strain trypomastigotes assessed as necrosis at 50.9 uM incubated for 24 hrs by Annexin V-FITC/7AAD staining based flow cytometry. The class given is functional, organism-based.
Data set [18] has as its system Trypanosoma cruzi. The data set is described as follows: Induction of apoptosis in Trypanosoma cruzi Y strain trypomastigotes assessed as late apoptosis at 131.92 uM incubated for 24 hrs by Annexin V-FITC/7AAD staining based flow cytometry. The class given is functional, organism-based.
The test system of data set [19] is Trypanosoma cruzi. Kind of data set: Induction of apoptosis in Trypanosoma cruzi Y strain trypomastigotes assessed as necrosis at 131.92 uM incubated for 24 hrs by Annexin V-FITC/7AAD staining based flow cytometry. The class given is functional, organism-based.

The structures appear in SMILES notation. The source made the active and inactive calls. No cut-off for these calls is given here.

`C/C(=N\Nc1nc(-c2ccc(F)cc2)cs1)c1ccc(Cl)c(Cl)c1Cl`: the IC50 in the data set on Trypanosoma cruzi [1] was determined as 19.4 µM; with Trypanosoma cruzi [3], 27.9 µM; in the data set on Trypanosoma cruzi [5], 21.5 µM. For the same compound, the selectivity ratio is 2.17 in data set [2], 1.96 in data set [6] and 1.51 in data set [7]. For the same compound, the CC50 at 72 h in data set [4] came out at 42.2 µM. Besides, the result in the data set with Trypanosoma cruzi [8], in the data set with Trypanosoma cruzi [9], with Trypanosoma cruzi [10], with Trypanosoma cruzi [11], in the data set on Trypanosoma cruzi [14] and in the data set on Trypanosoma cruzi [15] was Active. Further, the result in the data set with Trypanosoma cruzi [12] and in the data set with Trypanosoma cruzi [13] was inactive.

Regarding `C/C(=N\Nc1nc(-c2ccc(Cl)c(Cl)c2)cs1)c1ccc(Cl)c(Cl)c1Cl`, the values for the IC50 in the data set on Trypanosoma cruzi [1], with Trypanosoma cruzi [3] and with Trypanosoma cruzi [5] were 32.1 µM, 25.4 µM and 25.4 µM, respectively. For the same compound, the selectivity ratio in data set [2] stood at 1.39; in [6], 1.76; in data set [7] it was 1.76. Moreover, the CC50 at 72 h in [4] came to 44.9 µM. Moreover, the result in the data set with Trypanosoma cruzi [8], in the data set on Trypanosoma cruzi [9], with Trypanosoma cruzi [10], in the data set with Trypanosoma cruzi [11], in the data set on Trypanosoma cruzi [16] and in the data set with Trypanosoma cruzi [17] was Active. For the same compound, the outcome with Trypanosoma cruzi [12] and in the data set on Trypanosoma cruzi [13] was Active. In addition, the result in the data set on Trypanosoma cruzi [14] and in the data set with Trypanosoma cruzi [15] was inactive.

As for `O=C(Cn1ccnc1[N+](=O)[O-])NCc1ccccc1` [BENZNIDAZOLE], the values for the IC50 in the data set with Trypanosoma cruzi [1], in the data set on Trypanosoma cruzi [3] and in the data set on Trypanosoma cruzi [5] were 56.9 µM, 5.64 µM and 41 µM, respectively. Moreover, the values for the selectivity ratio in data set [2], in data set [6] and in data set [7] were 0.77, 1.07 and 7.83, respectively. Further, the CC50 at 72 h in data set [4] was determined as 44.2 µM.

Regarding `C/C(=N\Nc1nc(-c2ccc(-c3ccccc3)cc2)cs1)c1ccc(Cl)cc1Cl`, the IC50 with Trypanosoma cruzi [1] was 20.2 µM; in the data set with Trypanosoma cruzi [3] it was 14.9 µM; with Trypanosoma cruzi [5], 10.6 µM. Further, the selectivity ratio in data set [2] stood at 3.96; in data set [6], 7.58; in [7], 5.38. Also, the CC50 at 72 h in data set [4] came to 80.1 µM.

On to `C/C(=N\Nc1nc(-c2cccc([N+](=O)[O-])c2)cs1)c1ccc(Cl)c(Cl)c1Cl`, for which the values for the IC50 in the data set with Trypanosoma cruzi [1] and in the data set on Trypanosoma cruzi [3] were 8.42 µM and 4.46 µM, respectively. Also, the selectivity ratio in data set [2] is 3.47; in data set [7] it was 6.55. The CC50 at 72 h in [4] is 29.2 µM.

As to `C/C(=N\Nc1nc(-c2ccc(Cl)cc2)cs1)c1ccc(Cl)cc1Cl`, the figures for the IC50 with Trypanosoma cruzi [1], in the data set with Trypanosoma cruzi [3] and in the data set on Trypanosoma cruzi [5] were 7.55 µM, 10.6 µM and 17.9 µM, respectively. Besides, the results for the selectivity ratio in data set [2], in [6] and in data set [7] were 7.3, 3.07 and 5.21, respectively. In addition, the CC50 at 72 h in data set [4] was 55.1 µM.

`C/C(=N\NC1NC(=O)CS1)c1ccc(Cl)cc1Cl` (stereo not drawn): in the data set with Trypanosoma cruzi [5], the IC50 was 1.12 µM.

Consider `C/C(=N\Nc1nc(-c2ccccc2)cs1)c1ccc(Cl)c(Cl)c1Cl`, for which the half-inhibitory concentration (IC50) was determined as 13.8 µM with Trypanosoma cruzi [1], 20.6 µM in the data set with Trypanosoma cruzi [3] and 11.5 µM with Trypanosoma cruzi [5]. In addition, the selectivity ratio in [2] amounted to 2.18; in data set [6], 2.61; in [7] it was 1.46. For the same compound, the CC50 at 72 h in data set [4] worked out at 30.2 µM.

Take `COc1ccc(-c2csc(N/N=C(\C)c3ccc(Cl)c(Cl)c3Cl)n2)cc1`: the IC50 with Trypanosoma cruzi [1] was 7.88 µM; in the data set with Trypanosoma cruzi [3] it was 7.84 µM; with Trypanosoma cruzi [5], 30.9 µM. Besides, the selectivity ratio in data set [2] worked out at 3.43; in data set [6], 0.87; in data set [7] it was 3.45. The CC50 at 72 h in data set [4] turned out to be 27.1 µM.

With `C/C(=N\Nc1nc(-c2ccccc2)cs1)c1ccc(Cl)cc1Cl`, the IC50 in the data set with Trypanosoma cruzi [1] was found to be 7.42 µM; in the data set with Trypanosoma cruzi [3], 21.3 µM; with Trypanosoma cruzi [5] it was 45.9 µM. The selectivity ratio is 5.76 in [2], 0.93 in data set [6] and 2 in data set [7]. For the same compound, the CC50 at 72 h in data set [4] turned out to be 42.8 µM.

As to `C/C(=N\Nc1nc(-c2ccc3ccccc3c2)cs1)c1ccc(Cl)c(Cl)c1Cl`, the IC50 in the data set on Trypanosoma cruzi [1] turned out to be 10.9 µM; with Trypanosoma cruzi [3], 25.4 µM; in the data set on Trypanosoma cruzi [5], 66 µM. For the same compound, the selectivity ratio in [2] is 8.86; in data set [6], 1.45; in data set [7] it was 3.79. Moreover, the CC50 at 72 h in data set [4] stood at 96.2 µM. In addition, the result with Trypanosoma cruzi [8], with Trypanosoma cruzi [9], with Trypanosoma cruzi [10], in the data set with Trypanosoma cruzi [11], in the data set with Trypanosoma cruzi [18] and in the data set with Trypanosoma cruzi [19] was Active. Moreover, the result in the data set on Trypanosoma cruzi [12], in the data set on Trypanosoma cruzi [13], in the data set on Trypanosoma cruzi [14] and in the data set on Trypanosoma cruzi [15] was inactive.

As for `COc1ccc(-c2csc(N/N=C(\C)c3ccc(Cl)cc3Cl)n2)cc1`, the values for the IC50 with Trypanosoma cruzi [1], with Trypanosoma cruzi [3] and in the data set with Trypanosoma cruzi [5] were 3.48 µM, 3.65 µM and 45.3 µM, respectively. The results for the selectivity ratio in [2], in data set [6] and in data set [7] were 12.4, 0.95 and 11.8, respectively. In addition, the CC50 at 72 h in [4] stood at 43.1 µM. Further, the result in the data set with Trypanosoma cruzi [8], in the data set on Trypanosoma cruzi [9], with Trypanosoma cruzi [10], in the data set on Trypanosoma cruzi [11], in the data set on Trypanosoma cruzi [12] and in the data set with Trypanosoma cruzi [13] was Active. Also, the outcome with Trypanosoma cruzi [14] and in the data set on Trypanosoma cruzi [15] was inactive.

For the compound `C/C(=N\Nc1nc(-c2ccc(Cl)cc2Cl)cs1)c1ccc(Cl)c(Cl)c1Cl`, the IC50 with Trypanosoma cruzi [1] is 8.33 µM; with Trypanosoma cruzi [3] it was 13.6 µM; with Trypanosoma cruzi [5] it was 4.08 µM. Further, the selectivity ratio in [2] was 4.35; in data set [6], 8.89; in data set [7] it was 2.67. In addition, the CC50 at 72 h in data set [4] turned out to be 36.3 µM.

Turning to `C/C(=N\Nc1nc(-c2ccc(Br)cc2)cs1)c1ccc(Cl)c(Cl)c1Cl`, the IC50 in the data set on Trypanosoma cruzi [1] is 5.25 µM; with Trypanosoma cruzi [3], 5.96 µM. The selectivity ratio in [2] was found to be 5.68; in [7], 5. The CC50 at 72 h in data set [4] turned out to be 29.9 µM.

With `C/C(=N\Nc1nc(-c2ccc(Cl)cc2)cs1)c1ccc(Cl)c(Cl)c1Cl`, the IC50 with Trypanosoma cruzi [1] turned out to be 10.6 µM; in the data set with Trypanosoma cruzi [3], 8.71 µM; in the data set on Trypanosoma cruzi [5], 3.27 µM. The selectivity ratio in [2] is 3.73; in data set [6] it was 12.1; in data set [7], 4.55. Moreover, the CC50 at 72 h in data set [4] is 39.6 µM.

Consider `C/C(=N\Nc1nc(-c2ccc(-c3ccccc3)cc2)cs1)c1ccc(Cl)c(Cl)c1Cl`, for which the IC50 amounted to 8.62 µM in the data set with Trypanosoma cruzi [1], 12.9 µM in the data set on Trypanosoma cruzi [3] and 2.64 µM in the data set on Trypanosoma cruzi [5]. Besides, the selectivity ratio in data set [2] is 7.22; in data set [6] it was 23.6; in data set [7], 4.83. Further, the CC50 at 72 h in data set [4] was determined as 62.2 µM.

Consider `C/C(=N\Nc1nc(-c2ccc([N+](=O)[O-])cc2)cs1)c1ccc(Cl)c(Cl)c1Cl`, for which the IC50 was 28.9 µM with Trypanosoma cruzi [1] and 45.3 µM with Trypanosoma cruzi [3]. Moreover, the selectivity ratio in data set [2] turned out to be 3.05; in data set [7], 1.95. Further, in data set [4], the CC50 at 72 h is 88.5 µM.
